Measured values as given in PubChem BioAssay AID1963860 (Molecular Pharmacology Branch, DTP, NCI, 2024).

Test system: CN0375-F725-PDC KRAS spheroid viability
Assay: Anticancer human tumor CN0375-F725-PDC patient-derived colon carcinoma cell line growth inhibition [KRAS2]
Settings: spheroids with HUVEC and MSC; for IC50: curve of first compound; for viability, T/C: stronger effect = lower value
Description: Multicellular complex tumor spheroid response to RAS pathway inhibitors in combination with a targeted agents in patient-derived cell lines with oncogenic KRAS variants from multiple cancer types
A high-throughput screen of multi-cell type tumor spheroids was designed to identify active combinations of targeted small molecules and KRAS pathway inhibitors. Complex spheroids include a stromal component modeled by human endothelial cells (HUVEC) and fibroblasts modeled by human mesenchymal stem cells (MSCs). The concentration ranges selected for each drug and investigational agent were based upon clinically achievable concentrations if the clinical Cmax of the agent was known.
Compounds. The drugs and investigational agents: BI-3406 (NSC825286), BAY-293 (NSC824723), batoprotafib (TNO155; NSC825523), sotorasib (AMG 510; NSC818433), MRTX1257 (NSC819558), elimusertib (BAY 1895344; NSC800525), molibresib (GSK525762; NSC774829), temuterkib (LY3214996; NSC803410), venetoclax (NSC766270), alisertib (NSC759677), olaparib (NSC753686), talazoparib (NSC767125), erdafitinib (NSC781556), ipatasertib (NSC767898), cabozantinib (NSC761068), nintedanib (NSC756659), abemaciclib (NSC768073), docetaxel (NSC628503), trametinib (NSC758246), and sapanisertib (NSC764658) were obtained from the National Cancer Institute (NCI) Developmental Therapeutics Program Chemical Repository. The FDA-approved anticancer drug set is available from the Developmental Therapeutics Program. […] The stock solutions were prepared in dimethyl sulfoxide (DMSO, Sigma-Aldrich, St. Louis, MO, cat. D2650) at 800-fold the tested concentration and stored at -70 degrees C prior to their use. All drugs and investigational agents were tested over a range starting from a high concentration at or near the clinical Cmax and decreasing in half-log increments. If the clinical Cmax for an agent had not been determined, the highest concentration tested was 10 microM.
Cell Culture. All cells were maintained in an incubator at 37 degrees C and 5% CO2 with 95% humidity. The PDC lines were cultured according to standard operating procedures established by the NCI PDMR (https://pdmr.cancer.gov/sops/default.htm). Briefly, all PDCs were thawed and cultured in Matrigel-coated flasks prepared with a working solution of 1X Ham's F-12 nutrient mix, without supplementation (Invitrogen, Waltham, MA, cat. 11765054), 100 U/mL penicillin-streptomycin (Invitrogen, cat. 15140122), and 2.5% Matrigel (Corning Inc., Corning, NY, cat. 354248) for the first three passages. All PDCs were cultured in complete DMEM/F-12 media containing advanced DMEM/F-12 (Invitrogen, cat. 12634028), 4.9% defined fetal bovine serum, heat inactivated (HyClone Laboratories Inc., Logan, UT, cat. SH30070.03HI), 389 ng/mL hydrocortisone (Sigma-Aldrich, cat. H4001), 9.7 ng/mL human EGF recombinant protein (Invitrogen, cat. PHG0313), 23.4 microg/mL adenine (Sigma-Aldrich, cat. A2786), 97.3 U/mL penicillin-streptomycin (Invitrogen, cat. 15140122), 1.9 mM L-glutamine (Invitrogen, cat. 25030081), and 9.7 microM Y-27632 dihydrochloride (Tocris Bioscience, Bristol, United Kingdom, cat. 1254). The PDCs were cultured in complete DMEM/F12 media without 9.7 microM Y-27632 dihydrochloride for at least two passages prior to the screen. The established cell line HOP-62 was cultured in RPMI 1640 medium, HEPES (Invitrogen, cat. 22400105) with 10% defined fetal bovine serum (HyClone Laboratories Inc., cat. SH30070.03) and 2 mM L-glutamine (Invitrogen, cat. 25030081). The pooled donor HUVEC were cultured in endothelial cell growth medium 2 (PromoCell, Heidelberg, Germany, cat. C-22011) and the hMSC were cultured in mesenchymal stem cell growth medium 2 (PromoCell, cat. C-28009). For all experiments, HUVEC and hMSC were used at passages </=5, while the malignant cell lines were used at passages </=15. […]

[1] = second compound 0.1 µM, first compound 0.0316 µM
[2] = second compound 0.1 µM, first compound 0.1 µM
[3] = second compound 0.316 µM, first compound 0.0316 µM
[4] = second compound 0.316 µM, first compound 0.1 µM
[5] = second compound 1 µM, first compound 0.0316 µM
[6] = second compound 1 µM, first compound 0.1 µM
[7] = second compound 3.16 µM, first compound 0.0316 µM
[8] = second compound 3.16 µM, first compound 0.1 µM
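Also: spheroids exposed to agents for 7 days.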

**Q.** Which IC50 (second compound 0.1 µM) does the source give for `COc1cc(Nc2ncc3c(n2)-c2ccc(Cl)cc2C(c2c(F)cccc2OC)=NC3)ccc1C(=O)O` + COc1cc2nc(C)nc(NC(C)c3cc(N)cc(C(F)(F)F)c3)c2cc1OC1CCOC1 here?
**A.** > 10000 nM

**Q.** And the IC50 (second compound 0.316 µM)?
**A.** > 10000 nM

**Q.** What about the IC50 (second compound 1 µM) of the same molecule?
**A.** > 10000 nM

**Q.** What about the IC50 (second compound 3.16 µM) of the same molecule?
**A.** > 10000 nM

**Q.** And the IC50 (second compound 10 µM)?
**A.** < 31.6 nM

**Q.** And the viability, T/C [1]?
**A.** 95.9%

**Q.** What about the viability, T/C [2] of the same molecule?
**A.** 93.2%

**Q.** What about the viability, T/C (second compound 0.1 µM, first compound 0.316 µM) of the same molecule?
**A.** 88.8%

**Q.** And the viability, T/C (second compound 0.1 µM, first compound 1 µM)?
**A.** 88.2%

**Q.** And the viability, T/C (second compound 0.1 µM, first compound 3.16 µM)?
**A.** 87.3%

**Q.** What about the viability, T/C (second compound 0.1 µM, first compound 10 µM) of the same molecule?
**A.** 71.8%

**Q.** And the viability, T/C [3]?
**A.** 97%

**Q.** And the viability, T/C [4]?
**A.** 97.6%

**Q.** And the viability, T/C (second compound 0.316 µM, first compound 0.316 µM)?
**A.** 90.5%

**Q.** What about the viability, T/C (second compound 0.316 µM, first compound 1 µM) of the same molecule?
**A.** 87.8%

**Q.** What about the viability, T/C (second compound 0.316 µM, first compound 3.16 µM) of the same molecule?
**A.** 83.1%

**Q.** And the viability, T/C (second compound 0.316 µM, first compound 10 µM)?
**A.** 71.8%

**Q.** What about the viability, T/C [5] of the same molecule?
**A.** 91.7%

**Q.** What about the viability, T/C [6] of the same molecule?
**A.** 95.6%

**Q.** And the viability, T/C (second compound 1 µM, first compound 0.316 µM)?
**A.** 89.8%

**Q.** And the viability, T/C (second compound 1 µM, first compound 1 µM)?
**A.** 85.1%

**Q.** And the viability, T/C (second compound 1 µM, first compound 3.16 µM)?
**A.** 83.9%

**Q.** What about the viability, T/C (second compound 1 µM, first compound 10 µM) of the same molecule?
**A.** 69.4%

**Q.** And the viability, T/C [7]?
**A.** 84.8%

**Q.** What about the viability, T/C [8] of the same molecule?
**A.** 88.3%

**Q.** What about the viability, T/C (second compound 3.16 µM, first compound 0.316 µM) of the same molecule?
**A.** 72.7%

**Q.** And the viability, T/C (second compound 3.16 µM, first compound 1 µM)?
**A.** 79%

**Q.** And the viability, T/C (second compound 3.16 µM, first compound 3.16 µM)?
**A.** 75.9%

**Q.** What about the viability, T/C (second compound 3.16 µM, first compound 10 µM) of the same molecule?
**A.** 64.6%

**Q.** What about the viability, T/C (second compound 10 µM, first compound 0.0316 µM) of the same molecule?
**A.** 27.6%

**Q.** And the viability, T/C (second compound 10 µM, first compound 0.1 µM)?
**A.** 15.6%

**Q.** What about the viability, T/C (second compound 10 µM, first compound 0.316 µM) of the same molecule?
**A.** 13.9%

**Q.** And the viability, T/C (second compound 10 µM, first compound 1 µM)?
**A.** 15.7%

**Q.** And the viability, T/C (second compound 10 µM, first compound 3.16 µM)?
**A.** 15.5%

**Q.** What about the viability, T/C (second compound 10 µM, first compound 10 µM) of the same molecule?
**A.** 7.94%

**Q.** `Cn1ncnc1[C@H]1c2n[nH]c(=O)c3cc(F)cc(c23)N[C@@H]1c1ccc(F)cc1` + C=CC(=O)N1CCN(c2nc(OCC3CCCN3C)nc3c2CCN(c2cccc4cccc(C)c24)C3)CC1CC#N was tested. Which IC50 (second compound 0.0316 µM) did it give?
**A.** > 100 nM

**Q.** And the IC50 (second compound 0.1 µM)?
**A.** > 100 nM

**Q.** What about the IC50 (second compound 0.316 µM) of the same molecule?
**A.** > 100 nM

**Q.** And the IC50 (second compound 1 µM)?
**A.** > 100 nM

**Q.** What about the IC50 (second compound 3.16 µM) of the same molecule?
**A.** < 0.316 nM

**Q.** What about the viability, T/C (second compound 0.0316 µM, first compound 0.000316 µM) of the same molecule?
**A.** 99.6%

**Q.** What about the viability, T/C (second compound 0.0316 µM, first compound 0.001 µM) of the same molecule?
**A.** 105%

**Q.** What about the viability, T/C (second compound 0.0316 µM, first compound 0.00316 µM) of the same molecule?
**A.** 99.2%

**Q.** What about the viability, T/C (second compound 0.0316 µM, first compound 0.01 µM) of the same molecule?
**A.** 103%

**Q.** What about the viability, T/C (second compound 0.0316 µM, first compound 0.0316 µM) of the same molecule?
**A.** 97.6%

**Q.** And the viability, T/C (second compound 0.0316 µM, first compound 0.1 µM)?
**A.** 99.6%

**Q.** And the viability, T/C (second compound 0.1 µM, first compound 0.000316 µM)?
**A.** 106%

**Q.** What about the viability, T/C (second compound 0.1 µM, first compound 0.001 µM) of the same molecule?
**A.** 105%

**Q.** And the viability, T/C (second compound 0.1 µM, first compound 0.00316 µM)?
**A.** 96.9%

**Q.** And the viability, T/C (second compound 0.1 µM, first compound 0.01 µM)?
**A.** 94.3%

**Q.** And the viability, T/C [1]?
**A.** 100%

**Q.** What about the viability, T/C [2] of the same molecule?
**A.** 91.8%

**Q.** What about the viability, T/C (second compound 0.316 µM, first compound 0.000316 µM) of the same molecule?
**A.** 95.9%

**Q.** And the viability, T/C (second compound 0.316 µM, first compound 0.001 µM)?
**A.** 107%

**Q.** What about the viability, T/C (second compound 0.316 µM, first compound 0.00316 µM) of the same molecule?
**A.** 100%

**Q.** And the viability, T/C (second compound 0.316 µM, first compound 0.01 µM)?
**A.** 95.9%

**Q.** What about the viability, T/C [3] of the same molecule?
**A.** 101%

**Q.** What about the viability, T/C [4] of the same molecule?
**A.** 87%

**Q.** And the viability, T/C (second compound 1 µM, first compound 0.000316 µM)?
**A.** 97.6%

**Q.** And the viability, T/C (second compound 1 µM, first compound 0.001 µM)?
**A.** 99%

**Q.** What about the viability, T/C (second compound 1 µM, first compound 0.00316 µM) of the same molecule?
**A.** 93.7%

**Q.** And the viability, T/C (second compound 1 µM, first compound 0.01 µM)?
**A.** 87.7%

**Q.** And the viability, T/C [5]?
**A.** 90.9%

**Q.** What about the viability, T/C [6] of the same molecule?
**A.** 86.2%

**Q.** And the viability, T/C (second compound 3.16 µM, first compound 0.000316 µM)?
**A.** 14.6%

**Q.** What about the viability, T/C (second compound 3.16 µM, first compound 0.001 µM) of the same molecule?
**A.** 13.1%

**Q.** And the viability, T/C (second compound 3.16 µM, first compound 0.00316 µM)?
**A.** 20.2%

**Q.** What about the viability, T/C (second compound 3.16 µM, first compound 0.01 µM) of the same molecule?
**A.** 16.1%

**Q.** What about the viability, T/C [7] of the same molecule?
**A.** 14.4%

**Q.** What about the viability, T/C [8] of the same molecule?
**A.** 14.3%
